Reference: patent US7482124B2, “Method of identifying a PPARgamma-agonist compound having a decreased likelihood of inducing dose-dependent peripheral edema” (Bristol-Myers Squibb Company, priority 2005, dated 2009)
Where “and” joins values, the source holds several entries; their conditions need not be identical. Identical values can stand only once.

Experiments:
[1] = system: human endothelin-1 gene expression in CALU-6 cells; assay: Endothelin-1 gene expression in CALU-6 cells, quantitative RT-PCR dose-titration; format: cell-based
From the text: (§1) Cell line maintenance: CALU-6 cells and growth media were obtained from ATCC® (Manassas, Va.). CALU-6 cells were recovered and expanded in complete growth media (Minimal Essential Media+Earle's Balanced Salt Solution, 1% penicillin/streptomycin, 10% Fetal Bovine Serum). Antibiotics and FBS were purchased from Invitrogen.
(§2) Compounds: Compound A, Compound B, Compound D, Compound C, Compound G, Compound F, Compound H, Compound I, Compound J and Compound K were synthesized at Bristol-Myers Squibb Co. Compound E was purified by reverse phase high-performance liquid chromatography from commercial pharmaceutical preparations. Compounds A, B, F, and G are dual PPAR alpha and gamma agonists; while compounds C, D, and E are single PPAR gamma agonists. Fenofibrate and DMSO were purchased from Sigma. […]
(§3) Quantitative RT-PCR experiments: CALU-6 cells were seeded on day 0 in at 5×10^5 cells/well, in 6-well tissue culture plates. […] RNA quantities were determined spectrophotometrically using a SPECTRAMAX® 384 spectrophotometer (Molecular Devices). […] All data were further analyzed using Microsoft Excel. Fold-change in gene expression upon treatment with compound was expressed as […] ΔCt, where ΔΔCt=(Ctrenin, endothelin-1−CtGAPDH)DMSO−(Ctrenin, endothelin-1−CtGAPDH)treatment. […] Dose-titration experiments were further analyzed using GraphPad Prism Software (GraphPad Inc) to derive EC50 values. […]

[2] = system: human renin gene expression in CALU-6 cells; assay: Human renin expression profile in CALU-6 cells by quantitative RT-PCR (Example 7); format: cell-based; settings: qRT-PCR, CALU-6, 5×EC50, 24 hr, FIG. 11
Method: Since RAAS plays a fundamental role in fluid volume homeostasis, the possibility that PPAR agonists may contribute to agonist-induced edema mechanism of action through the modulation of other components of this system, specifically renin, was investigated using quantitative RT-PCR. Briefly, gene expression studies were performed using a cell line that was previously shown to express endogenous renin mRNA, CALU-6 (Lang et al., 1995).
The human lung carcinoma cell line, CALU-6, was chosen on account of it being previously shown to endogenously express renin. […]
(§4) Compounds A, B, C, D, and F were synthesized at Bristol-Myers Squibb Co. Compound E was purified by reverse phase high-performance liquid chromatography from commercial pharmaceutical preparations. […] The final concentration of each PPAR-agonist used in the induction studies was 5×EC50 as determined from pre-adipocyte differentiation studies (data not shown). […]
(§5) CALU-6 cells were seeded on day 0 in replicates of six (or twelve for DMSO control), at 5×10^5 cells/well, in 6-well tissue culture plates. […] RNA quantities were determined spectrophotometrically using a SPECTRAMAX® 384 spectrophotometer (Molecular Devices). RNA quality was assessed using an Agilent 2100 Bioanalyzer (Agilent Technologies) following the manufacturer's recommendations. […]

[3] = system: human endothelin-1 gene expression in CALU-6 cells; assay: Human endothelin-1 expression profile in CALU-6 cells by quantitative RT-PCR (Example 15); format: cell-based
Method: On account of the involvement of ET-1 in vascular tone maintenance, along with its involvement in numerous cardiovascular disease processes, the possibility that PPAR agonists may contribute to an agonist-induced edema mechanism of action through the modulation of endoethelin-1, was investigated using quantitative RT-PCR. Briefly, gene expression studies were performed using a cell line that was previously shown to express endogenous endothelin mRNA, CALU-6 (Lang et al., 1995).
The human lung carcinoma cell line, CALU-6, was obtained from ATCC®. […]
as §4, §5

[4] = system: human renin gene expression in CALU-6 cells; assay: Renin gene expression in CALU-6 cells, quantitative RT-PCR dose-titration; format: cell-based
From the text: as §1, §2, §3

[5] = system: human renin gene expression in CALU-6 cells; assay: Human renin expression in CALU-6 cells by microarray analysis (Example 8); format: cell-based; settings: CALU-6, 5×EC50, 24 hr, FIGS. 12A-B
Method: As an independent measurement of the renin induction by PPAR agonists observed using RT-PCR (see Example 7 and FIG. 11), four of the experimental treatment groups described under the “Induction Experiments” section in Example 7, were analyzed on AFFYMETRIX® genechips, including; DMSO, Compound A, Compound B, and Compound E. Triplicate samples from each treatment group were analyzed.
All cDNA and cRNA synthesis as well as all hybridizations and subsequent washing steps were performed following the […]® Expression Analysis Technical Manual (Affymetrix). AFFYMETRIX® HG-U133A gene chips were used for all expression profiling studies in this invention.
Micro Array Suite (MAS) 5.0 (Affymetrix) software was used to pre-process all micro-array data. Each treated sample (including DMSO control) was first scaled to an average intensity value of 1500. The data was further analyzed in Excel '97 (Microsoft).
All treated samples were compiled into one Excel spreadsheet such that each compound treated sample (and DMSO control) was aligned for all 22283 genes on the HG-U133A […]®. Gene fold-change values were calculated by dividing the mean signal intensity of each treatment group by the mean signal intensity of the DMSO control. Pair-wise 2-tailed Student's t-tests were performed for each treatment group.

diabetics = settings: literature (Leff and Reed 2002; Nesto et al. 2003); cited from earlier work
patients = assay: Dose-dependent peripheral edema in Phase II clinical trials CV168-006 and CV168-008; format: in vivo, human
Method: Genomic DNA samples from patients enrolled in two Bristol-Myers Squibb Company Phase II clinical trials CV168-006 and CV168-008 trials were genotyped for 50 SNPs identified in the human renin gene (see Example 1) and evaluated for association with edema.
498 subjects enrolled in the CV168-006 trial and 232 subjects from the CV168-008 trial were analyzed in this study. All analyses were based on data collected up to 24 weeks, which was the duration of the short-term phase of the trials. DNA was extracted from frozen blood by a third-party (Genaissance Inc, North Carolina) using a salting-out method (Gentra Systems). All subjects gave written informed consent.
The association between peripheral edema and the renin single nucleotide polymorphisms of the present invention were investigated by applying statistical analysis to the results of the genotyping assays described elsewhere herein. The central hypothesis of this analysis is that a predisposition to develop dose-dependent peripheral edema may be conferred by specific genomic factors. The analysis attempted to identify one or more of these factors in genomic DNA samples from index cases and matched control subjects who were exposed to Compound A in two Bristol-Myers Squibb (BMS) clinical studies (see Example 2).
Sample. Investigators in the BMS clinical trials diagnosed dose-dependent peripheral edema in some subjects.
Table A provides a distribution of the frequency of dose-dependent peripheral edema by treatment arm.

[6] = Dose E (133 subjects), 40 fold Dose A

SMILES: COc1ccc(OC(=O)N(CC(=O)O)Cc2ccc(OCCc3nc(-c4ccccc4)oc3C)cc2)cc1 [COM. A, N-[(4-methoxyphenoxy)carbonyl]-N-[[4-[2-(5-methyl-2-phenyl-4-oxazolyl)ethoxy]phenyl]methyl] glycine]
- down-regulation of endothelin-1 gene expression, factor ([1]; CALU-6, qRT-PCR, FIG. 21A): four to five
- IC50 ([1]; Homo sapiens, mean ± SEM, endothelin-1 down-regulation, dose-titration experiments (n = 3 to n = 18), CALU-6, 24 hr): 18 ± 6.07 nM
- human renin expression, fold-change over DMSO treated cells [2]: significantly elevate
- difference in level of endothelin-1 repression compared to other PPAR agonists studied ([3]; CALU-6, 5×EC50): no significant difference
- human endothelin-1 expression, fold-change over DMSO treated cells ([3]; qRT-PCR, CALU-6, 5×EC50, 24 hr, FIGS. 16 and 17): significantly decrease
- increase of renin mRNA, factor ([4]; CALU-6, qRT-PCR, FIG. 21A): fifteen to twenty
- EC50 ([4]; Homo sapiens, mean ± SEM, renin up-regulation, dose-titration experiments (n = 3 to n = 18), CALU-6, 24 hr): 96.3 ± 32 nM
- human renin expression, fold-change over DMSO treated cells [5]: significantly increased
- edema in clinical use (diabetics): acceptable incidence and severity of edema
- Number of edema cases (patients; Dose A (79 subjects)): 16
- edema cases (%) (patients; Dose A (79 subjects)): 20%
- Number of edema cases (patients; Dose B (90 subjects)): 14
- edema cases (%) (patients; Dose B (90 subjects)): 16%
- Number of edema cases (patients; Dose C (125 subjects)): 13
- edema cases (%) (patients; Dose C (125 subjects)): 10%
- Number of edema cases (patients; Dose D (129 subjects)): 27
- edema cases (%) (patients; Dose D (129 subjects)): 21%
- Number of edema cases (patients; [6]): 54
- edema cases (%) (patients; [6]): 40% and 41%
- frequency of edema with dose (patients; dose increased from 0.5 mg to 20 mg): frequency of edema increased
